Drawing on US20260198495A1, “BINARY INSECTICIDE COMPOSITION AND USE THEREOF” (SHENYANG SINOCHEM AGROCHEMICALS R & D CO., LTD., priority 2022, published 2026), this text covers LC50 for 14 compounds.

As usually defined, the LC50 is the concentration that kills 50% of the test population.

What all share (assay type): in vivo
In data set [1] the test system is Bemisia tabaci (Gennadius) nymphs. Nature of the data set: Joint toxicity of I-72 + bifenthrin, Example 40, Table 40. The following applies: in Gossypium hirsutum, 96 h. Here is the method:
Test target: Bemisia tabaci (Gennadius) nymphs, a sensitive strain reared indoors.
(§1) Preparation of the pesticide solution: according to different test requirements, the test samples were accurately weighed respectively with an electronic analytical balance. The technical pesticides were dissolved in acetone, and then diluted with 0.1% Tween 80 water into a series of pesticide solutions with a certain concentration gradient according to the experimental design dosage.
Experimental method: first, cotton leaves with neat and consistent Bemisia tabaci (Gennadius) nymphs were selected and made into leaf disks, with about 20 insects on each leaf disk. Then, they were evenly sprayed with the pesticide solution in the order from low dosage to high dosage according to the experimental design, with 1.5 mL for each leaf and 3 replicates for each treatment. In addition, a blank control was set up.
The treated test materials were placed in an observation room, and the temperature, humidity and illumination of the observation room could be adjusted as needed. The number of dead and live insects was investigated 96 hours later. […] Then, the co-toxicity coefficient of each ratio was calculated using the Sun Y-P method to evaluate the mixing effect (the same as in Example 1).

Data set [2] deals with 3rd-instar larvae of Ostrinia furnacalis Guenee. Nature of the data set: Joint toxicity of I-72 + lambda-cyhalothrin, Example 42, Table 42. The following applies: in Zea mays, 72 h. Here is the method:
Test target: 3rd-instar larvae of Ostrinia furnacalis Guenee.
as §1
Experimental method: first, tender corn stems were selected and dipped in the prepared pesticide solution for 10 s in the order from low dosage to high dosage according to the experimental design. After natural air-drying in the shade, they were placed in a 9-cm-diameter Petri dish with filter paper, and uniform and healthy test insects were introduced, with 10 insects for each treatment and 3 replicates for each treatment. In addition, a blank control was set up.
(§2) The treated test materials were placed in an observation room, and the temperature, humidity and illumination of the observation room could be adjusted as needed. The number of dead and live insects was investigated 72 hours later. […] Then, the co-toxicity coefficient of each ratio was calculated using the Sun Y-P method to evaluate the mixing effect (the same as in Example 1).

The subject of data set [3] is 2nd-instar larvae of Chilo suppressalis (Walker). Kind of data set: Joint toxicity of I-72 + azadirachtin, Example 36, Table 36. The following applies: in Oryza sativa, 72 h. The text has this: Test target: 2nd-instar larvae of Chilo suppressalis (Walker). The insect source was collected from Nanchang, Jiangxi Province, and it is the 11th generation continuously cultured indoors, with a relatively high resistance level to amide pesticides such as chlorantraniliprole.
Experimental method: the spraying method was adopted. Rice stalks with the same length and thickness were selected, cut into the same length, and evenly sprayed with the pesticide solution in the order from low dosage to high dosage according to the experimental design, with 1.5 mL of the pesticide solution for each treatment. The stalks were placed in a 6-cm-diameter Petri dish with filter paper. After natural air-drying in the shade, uniform and healthy test insects were introduced, with 10 insects for each treatment and 4 replicates for each treatment. In addition, a blank control was set up. The number of dead and live insects was investigated 72 hours later. The corrected mortality rate was calculated using the Abbott's formula, and the DPS data processing software was used for statistical analysis to calculate the toxicities (LC50 values) of the single test pesticides and the mixtures under the test ratios.
(§3) The test conditions, the preparation of the pesticide solution and the evaluation method were the same as those in Example 1.

For data set [4], the system named is 2nd-instar larvae of Mythimna separata. Nature of the data set: Joint toxicity of I-72 + beta-cyfluthrin, Example 41, Table 41. Particulars: A = compound I-72, B = beta-cyfluthrin; corn leaf dipping; 72 hours. As for the experimental part: Test target: 2nd-instar larvae of Mythimna separata.
as §1
Experimental method: first, corn leaves were selected and dipped in the prepared pesticide solution for 10 s in the order from low dosage to high dosage according to the experimental design. After natural air-drying in the shade, they were placed in a 9-cm-diameter Petri dish with filter paper, and uniform and healthy test insects were introduced, with 10 insects for each treatment and 3 replicates for each treatment. In addition, a blank control was set up.
as §2

Data set [5] relates to Nilaparvata lugens (Stal) nymphs. Nature of the data set: Joint toxicity of I-72 + buprofezin, Example 52, Table 52. The following applies: 72 h. As for the experimental part:
(§4) Test target: Nilaparvata lugens (Stal) nymphs, a sensitive strain reared indoors.
as §1
(§5) Experimental method: the activity of the mixture against the Nilaparvata lugens (Stal) nymphs was determined by adopting the potted-seedling spraying method. First, rice seedlings were planted in culture pots. Uniform spraying was performed with the pesticide solution in the order from low dosage to high dosage according to the experimental design, with 2 mL for each seedling. Then, Nilaparvata lugens nymphs of uniform size were transferred onto the rice seedlings, with 3 replicates for each treatment. In addition, a blank control was set up.
The treated test materials were placed in an observation room, and the temperature, humidity and illumination of the observation room could be adjusted as needed. The number of dead and live insects was investigated 72 hours later. […] Then, the co-toxicity coefficient of each ratio was calculated using the Sun Y-P method to evaluate the mixing effect, as in Example 1.

Data set [6] concerns adult Phyllotreta vittuta Fabr. Nature of the data set: Joint toxicity of I-72 + deltamethrin, Example 45, Table 45. Particulars: 72 h. Here is the method: Test target: adult Phyllotreta vittuta Fabr.
as §1
Experimental method: first, uniform and consistent potted cabbage seedlings were selected. Then, uniform spraying was performed with the pesticide solution in the order from low dosage to high dosage according to the experimental design. After air-drying in the shade, adult flea beetles were transferred onto the treated cabbage seedlings, and then glass covers were put on them, with about 30-40 adult flea beetles on each seedling and 3 replicates for each treatment. In addition, a blank control was set up.
as §2

Data set [7] has as its system Nilaparvata lugens (Stal) nymphs. Kind of data set: Joint toxicity of I-72 + etofenprox, Example 44, Table 44. The following applies: in Oryza sativa, 72 h. As for the experimental part:
as §4, §1, §5, §2

The subject of data set [8] is adult Tetranychus cinnabarinus (Boisduval). Kind of data set: Joint toxicity of I-72 + fenpropathrin, Example 39, Table 39. The following applies: 72 h. Here is the method:
Test target: adult Tetranychus cinnabarinus (Boisduval), a sensitive strain reared indoors.
as §1
Experimental method: the activity of the mixture against the adult Tetranychus cinnabarinus (Boisduval) was determined by adopting the potted-seedling spraying method. First, the adult Tetranychus cinnabarinus of uniform size were transferred onto the leaves of kidney bean seedlings at the stage when the first pair of true leaves was fully expanded. After the adult mites had stabilized, the base number was counted. Then, the uniform spraying was performed with the pesticide solution in the order from low to high dose according to the experimental design, with 1.5 mL for each seedling and 3 replicates for each treatment. […]
The treated test materials were placed in an observation room, and the temperature, humidity and illumination of the observation room could be adjusted as needed. […] Then, the co-toxicity coefficient of each ratio was calculated using the Sun Y-P method to evaluate the mixing effect, as in Example 1.

The subject of data set [9] is Myzus persicae (Sulzer) nymphs. Kind of data set: Joint toxicity of I-72 + fenvalerate, Example 46, Table 46. Particulars: in Brassica oleracea, 48 h. As for the experimental part: Test target: Myzus persicae (Sulzer) nymphs, a sensitive strain reared indoors.
as §1
Experimental method: first, cabbage leaves with uniform and consistent Myzus persicae (Sulzer) were selected, with about 30-40 insects on each leaf. Then, they were evenly sprayed with the pesticide solution in the order from low dosage to high dosage according to the experimental design, with 1.5 mL of the solution for each leaf and 3 replicates for each treatment. In addition, a blank control was set up.
(§6) The treated test materials were placed in an observation room, and the temperature, humidity and illumination of the observation room could be adjusted as needed. The number of dead and live insects was investigated 48 hours later. […] Then, the co-toxicity coefficient of each ratio was calculated using the Sun Y-P method to evaluate the mixing effect (the same as in Example 1).

Data set [10] has as its system 2nd-instar larvae of Spodoptera exigua Hübner. Kind of data set: Joint toxicity of I-72 + lufenuron, Example 54, Table 54. The following applies: in Brassica oleracea, foliar, 72 h. As for the experimental part: Test target: 2nd-instar larvae of Spodoptera exigua Hübner.
as §1
Experimental method: first, cabbage leaves were selected and dipped in the prepared pesticide solution for 10 s in the order from low dosage to high dosage according to the experimental design. After natural air-drying in the shade, they were placed in a 9-cm-diameter Petri dish with filter paper, and uniform and healthy test insects were introduced, with 10 insects for each treatment and 3 replicates for each treatment. In addition, a blank control was set up.
as §2

Data set [11] deals with mixed aphids of Myzus persicae (Sulzer). Nature of the data set: Joint toxicity of I-72 + matrine, Example 34, Table 34. The following applies: in Brassica oleracea, 48 h.
Description: Test subject: mixed aphids of Myzus persicae (Sulzer), a sensitive strain reared indoors.
Experimental method: the spraying method on leaves with aphids was adopted. Cabbage leaves with a certain number of Myzus persicae (Sulzer) were taken. The prepared pesticide solutions were evenly sprayed on both the front and back sides of the leaves in the order from low concentration to high concentration according to the experimental design. Then, the leaves were placed in a 6-cm-diameter Petri dish with filter paper. After natural air-drying in the shade, they were placed in the observation room. The experiment had 3 replicates set, and in addition, a blank control was set up. The number of dead and live insects was investigated 48 hours later. The corrected mortality rate was calculated using the Abbott's formula, and the DPS data processing software was used for statistical analysis to calculate the toxicities (LC50 values) of the single test pesticides and the mixtures under the test ratios.
as §3

The subject of data set [12] is 3rd-instar larvae of Chilo suppressalis (Walker). Kind of data set: Joint toxicity of I-72 + methoxyfenozide, Example 53, Table 53. Particulars: in Oryza sativa, 72 h. As for the experimental part: Test target: 3rd-instar larvae of Chilo suppressalis (Walker).
as §1
Experimental method: first, tender rice stems were selected and dipped in the prepared pesticide solution for 10 s in the order from low dosage to high dosage according to the experimental design. After natural air-drying in the shade, they were placed in a 9-cm-diameter Petri dish with filter paper, and uniform and healthy test insects were introduced, with 10 insects for each treatment and 3 replicates for each treatment. In addition, a blank control was set up.
as §2

The test system of data set [13] is adult Phyllotreta striolata (Walker). Kind of data set: Joint toxicity of I-72 + rotenone, insect dipping, Example 35, Table 35.
Description: Test target: adult Phyllotreta striolata (Walker), a strain reared indoors.
Experimental method: the dipping method was adopted. Adult flea beetles of uniform size were put into an insect-dipping cage and dipped for 10 s in the order from low dosage to high dosage according to the experimental design, with 30 beetles for each treatment. The beetles were placed in a 9-cm-diameter Petri dish with filter paper, with 3 replicates for each treatment. In addition, a blank control was set up. The treated test materials were placed in an observation room, and the temperature, humidity and illumination of the observation room could be adjusted as needed.
as §3

Data set [14] deals with Lipaphis erysimi (Kaltenbach). Nature of the data set: Joint toxicity of I-72 + pyrethrin, Example 47, Table 47. Particulars: A = compound I-72, B = pyrethrin; cabbage leaf spraying; 48 hours. Here is the method: Test target: Lipaphis erysimi (Kaltenbach).
as §1
Experimental method: first, cabbage leaves with uniform and consistent Lipaphis erysimi (Kaltenbach) were selected, with about 30-40 insects on each leaf. Then, they were evenly sprayed with the pesticide solution in the order from low dosage to high dosage according to the experimental design, with 1.5 mL of the solution for each leaf and 3 replicates for each treatment. In addition, a blank control was set up.
as §6

On to `Cc1c(COC(=O)[C@@H]2[C@H](/C=C(\Cl)C(F)(F)F)C2(C)C)cccc1-c1ccccc1` (racemic) [bifenthrin], for which the LC50 in data set [1] is 62.4 µg/mL.
As for `CC1(C)[C@H](C(=O)O[C@H](C#N)c2cccc(Oc3ccccc3)c2)[C@@H]1/C=C(\Cl)C(F)(F)F` (racemic) [lambda-cyhalothrin], the LC50 in data set [2] was determined as 1.83 µg/mL.
Regarding `C/C=C(\C)C(=O)O[C@H]1C[C@@H](OC(C)=O)[C@@]2(C(=O)OC)CO[C@H]3[C@@H](O)[C@@](C)([C@]45O[C@@]4(C)[C@H]4C[C@@H]5O[C@@H]5OC=C[C@@]54O)[C@H]4[C@]1(CO[C@]4(O)C(=O)OC)[C@@H]32` [azadirachtin], the LC50 in data set [3] was found to be 22.5 µg/mL.
As for `CC1(C)C(C=C(Cl)Cl)C1C(=O)OC(C#N)c1ccc(F)c(Oc2ccccc2)c1` (stereo not drawn) [beta-cyfluthrin], in data set [4], the median lethal concentration (LC50) was found to be 1.0438 mg/L.
With `CC(C)N1C(=O)N(c2ccccc2)CS/C1=N\C(C)(C)C` [buprofezin], the LC50 in data set [5] is 1.98 µg/mL.
Turning to `CC1(C)[C@H](C(=O)O[C@H](C#N)c2cccc(Oc3ccccc3)c2)[C@@H]1C=C(Br)Br` [deltamethrin], in data set [6], the 50% lethal concentration (LC50) was 6.76 µg/mL.
In the case of `CCOc1ccc(C(C)(C)COCc2cccc(Oc3ccccc3)c2)cc1` [etofenprox], the median lethal concentration (LC50) in data set [7] amounted to 25.4 µg/mL.
Consider `CC1(C)C(C(=O)OC(C#N)c2cccc(Oc3ccccc3)c2)C1(C)C` (centres unmarked) [fenpropathrin], for which the LC50 in data set [8] came out at 5.52 µg/mL.
For `CC(C)C(C(=O)OC(C#N)c1cccc(Oc2ccccc2)c1)c1ccc(Cl)cc1` (centres unmarked) [fenvalerate], the LC50 in [9] amounted to 34.4 µg/mL.
`O=C(NC(=O)c1c(F)cccc1F)Nc1cc(Cl)c(OC(F)(F)C(F)C(F)(F)F)cc1Cl` (centres unmarked) [lufenuron]: the LC50 in [10] stood at 12.9 µg/mL.
Consider `O=C1CCC[C@@H]2[C@H]3CCCN4CCC[C@@H](CN12)[C@@H]34` [matrine], for which the LC50 in data set [11] was found to be 3.24 µg/mL.
As for `COc1cccc(C(=O)NN(C(=O)c2cc(C)cc(C)c2)C(C)(C)C)c1C` [methoxyfenozide], the LC50 in [12] is 8.95 µg/mL.
In the case of `C=C(C)[C@H]1Cc2c(ccc3c2O[C@@H]2COc4cc(OC)c(OC)cc4[C@@H]2C3=O)O1` [rotenone], in data set [13], the median lethal concentration (LC50) was determined as 19.5 µg/mL.
As for pyrethrin, the median lethal concentration (LC50) in [14] is given as 55.3268 mg/L.
